Experiments:
VBC protein [1] = target: T1, VBC protein (Homo sapiens, UniProt P40337); test: Fluorescence polarization binding of fluorescent labeled HIF-1 peptide to VBC protein
T1 construct: made in house; host or cells: E. coli BL21 (DE3)
From the text: Human von Hippel-Lindau gene fragment (corresponding to 54˜213 a.a. region of the amino acid sequence represented by GenBank Accession No: NM000551) and human Elongin B fragment (corresponding to 1˜118 a.a. region of the amino acid sequence represented by GenBank Accession No: NM007108) were inserted into a modified pGEX-4T-1, resulting in plasmid pGEX4T-VHL-EB. Likewise, human Elongin C fragment (corresponding to 17˜112 a.a. region of the amino acid sequence represented by GenBank Accession No: NM005648) was inserted into pET29b vector, resulting in plasmid PDEV-EC (Novagen). The plasmids were co-expressed massively in E. coli BL21 (DE3) (Novagen).
(§1) Fluorescence polarization changes were measured during the formation of protein-ligand complex of VBC protein and the above peptides prepared in Example 1, to investigate binding capacity and characteristics thereof. Fluorescence polarization was measured by using fluorometer (Perkin-Elmer), and the size of slit was 5 nm and integration time was 5 seconds. A buffer solution containing 50 mM Tris and 120 mM NaCl, pH 8.0, was supplemented with NP-40 (nonidet P40) by 0.5%, for being utilized for the experiments of binding and interaction.
After mixing, fluorescence polarization was measured.

VBC protein [2] = target: T1, VBC protein; test: Fluorescence polarization competition assay for inhibitors of F-HyP564 peptide-VBC protein binding; details: 100 nM F-HyP564, 500 nM VBC, competitor 0 to 500 μM
Protocol: as §1
Fluorescence polarization of the reaction solution was measured.
After mixing, fluorescence polarization changes were measured.

Molecule | fluorescence polarization change on addition of competitor peptide (VBC protein [2]) | also measured
CC[C@H](C)[C@H](NC(=O)[C@H](Cc1ccc(O)cc1)NC(=O)[C@@H]1C[C@@H](O)CN1C(=O)[C@H](C)NC(=O)[C@H](CC(C)C)NC(=O)[C@H](C)NC(=O)[C@H](CCC(=O)O)NC(=O)[C@H](CC(C)C)NC(=O)[C@H](CC(=O)O)NC(=O)[C@H](CC(C)C)NC(=O)[C@H](CC(=O)O)NC(=O)CCCCCNC(=S)Nc1ccc2c(c1)C(=O)OC21c2ccc(O)cc2Oc2cc(O)ccc21)C(=O)N1CCC[C@H]1C(=O)N[C@@H](C)C(=O)N[C@@H](CC(=O)O)C(=O)N[C@@H](CC(=O)O)C(=O)N[C@@H](CC(=O)O)C(=O)N[C@@H](Cc1ccccc1)C(=O)N[C@@H](CCC(N)=O)C(=O)N[C@@H](CC(C)C)C(=O)N[C@@H](CCCNC(=N)N)C(=O)O [F-HyP564] |  | fluorescence polarization of reactant with VBC protein compared with probe itself (VBC protein [1]; reacted with VBC protein at 25° C.): remarkably increased
DDDFQLR [C] | only a slight decrease | 
F-P564: FITC-aminocaproic acid-labeled HIF-1α 556-575 peptide without hydroxyproline, SEQ ID NO:1 |  | fluorescence polarization value (VBC protein [1]; 100 nM peptide, 800 nM VBC protein, 25° C.): 0.066

Further lines, with some results ahead:

fluorescence polarization change on addition of competitor peptide (VBC protein [2]) | Molecule | also measured
remarkably decreased | CC[C@H](C)[C@H](NC(=O)[C@H](Cc1ccc(O)cc1)NC(=O)[C@@H]1C[C@@H](O)CN1C(=O)[C@H](C)NC(=O)[C@H](CC(C)C)NC(=O)[C@H](C)N)C(=O)N1CCC[C@H]1C(=O)N[C@@H](C)C(=O)O [Hy-N fragment, ALAHyPYIPA] | 
only a slight decrease | ALAPYIPA [N] | 

Source: patent US7691966B2, “Method for quantitative analysis for prolyl hydroxylase activity using fluorescence polarization” (Korea Institute of Science and Technology, priority 2005, dated 2010)
